{"source": "patent US20230201262A1", "about": "“MYELOMA-SPECIFIC IMMUNITY REQUIRES THE DIFFERENTIATION OF STEM-LIKE MEMORY T CELLS IN THE BONE MARROW” (Fred Hutchinson Cancer Center, priority 2021, published 2023)", "key": {"Vk*MYC myeloma": {"system": "Vk*MYC myeloma", "type": "in vivo", "description": "To achieve this, a system of allogeneic BMT was developed where C57B⅙ recipients are transplanted with BM and T cell grafts from minor MHC (major histocompatibility complex)-mismatched C3H.SW donors (alloBMT) or syngeneic C57B⅙ donors (synBMT). A green fluorescent protein (GFP)-expressing MLL-AF9-driven leukemia that allows for monitoring of tumor cells in peripheral blood and Vk*MYC myeloma that secretes immunoglobulin G (IgG), which can be monitored by serum protein electrophoresis as an M-band (albumin/gamma ratio) that is a hallmark of clinical disease, were utilized.\n(§1) Stem cell transplantation: Recipient mice were intravenously injected with Vk12653, which originated from Vk*MYC transgenic mice, 2 weeks before BMT (1 × 10^6 CD138^+CD19neg cells; MM-bearing mice) or with an MLL-AF9-driven AML (MLL-AF9; 0.1 × 10^6 GFP^+) or BCR-ABL-NUP98-HOXA9 (1.0 × 10^6 GFP^+) on D0 (AML-bearing mice). Recipients were transplanted with BM and T cell grafts (doses detailed in the figure legends) administered via tail vein injection the day after lethal irradiation (1000 cGy for C57B⅙ and 1100 cGy for B62DF1, 137Cs source). Every 2 weeks, serum samples were collected from MMbearing recipients, and M-band was quantified using a Sebia Hydrasys serum protein electrophoresis system ([…] 2 Scan). Leukemia cell number in blood was calculated weekly using flow cytometry to quantify GFP^+ cells in blood. Recipients were monitored daily, up to 120 days after BMT, and euthanized when hindlimb paralysis occurred or clinical scores reached ≥6. In competing risk analyses, deaths were attributed to myeloma if the M-band was above 0.28, a defined relapse threshold. In the leukemia models, leukemic death was defined by a white blood cell count above 50 × 10^6/ml or a GFP^+ leukemia frequency above 50% in blood or BM. For some experiments, mice were treated with 100 µg of anti-TIGIT monoclonal antibody (mAb; 4B1, Bristol Myers Squibb) or mouse IgG2a (anti-KLH) twice a week for 4 weeks from D+14 postalloBMT. For other experiments, mice were treated with 100 µg of Fc-dead anti-TIGIT mAb (D265A, Bristol Myers Squibb) or mouse IgG1 (anti-KLH.1) twice a week for 6 weeks from D+21 postalloBMT. Cyclophosphamide (Fisher Scientific; 99.5%, MP Biomedicals) was intraperitoneally administered at 50 mg/kg on D+3 and D+4 after alloBMT (PT-Cy). […] DR-18 was supplied by Simcha Therapeutics (New Haven, CT).\n(§2) Cell preparation for flow cytometry: Recipient mice were euthanized 2 to 8 weeks after transplant, and cells from BM or blood were harvested. For BM aspirates, mice were anesthetized and treated with a local analgesic (0.5% lidocaine) followed by injection of 30 µl of phosphate-buffered saline (PBS) into the femur to allow up to 10 µl of marrow to be aspirated for fluorescence- activated cell sorting (FACS) analysis. For surface marker phenotyping, isolated cells were incubated with Fc-block before staining with fluorescently tagged antibodies (listed in Table 1), on ice for 30 min. For intracellular staining, cells were surface labeled, fixed, and permeabilized (eBioscience, Foxp3 Transcription Factor Staining Buffer Kit) before intracellular staining at room temperature for 60 min. To measure cytokine production, cells were stimulated for 4 hours at 37° C. with PMA (500 ng/ml) and ionomycin (50 ng/ml; Sigma-Aldrich) with brefeldin A (BioLegend). All samples were acquired on a BD LSR Fortessa (BD Biosciences) or BD FACSymphony A3 (BD Biosciences) and analyzed using FlowJo software (v10). t-SNE analysis was performed using the FlowJo plugin with default settings on a concatenated sample with 3000 CD8 T cells per mouse. FlowSOM analysis was performed with 3000 to 4000 CD8 or CD4 T cells per mouse concatenated after downsampling.\nStatistical analysis: Data are presented as means ± SEM, and P < 0.05 was considered significant. Survival curves were plotted using Kaplan-Meier estimates and compared by log-rank (Mantel-Cox) test."}, "[1]": {"system": "BCR-ABL-NUP98-HOXA9 leukemia", "method": "Recipients were untreated (haploBMT) or administered PT-Cy (50 mg/kg) on D+3 and D+4 (PT-Cy) with or without decoy-resistant IL-18 (PT-Cy + DR-18; 8 µg twice weekly from D+7 to week 5) or CD137 agonist antibody (PT-Cy + αCD137; 100 µg twice weekly from D+7 to week 5).\nIt was next sought to explore the combination of agonist immunotherapy with PT-Cy in a model of haploidentical transplantation (haploBMT), a setting where PT-Cy is a clinical standard of care. In this model, there is a major genetic mismatch between the recipient and the donor whereby lethal GVHD occurs in the absence of any immunosuppressive interventions.\nTo explore the mechanisms of DR-18-driven GVL in a haploBMT setting, donor cells from a triple reporter mouse (FoxP3-RFP × IL-10-GFP × IFN-γ-YFP) were used to measure in vivo cytokine production without restimulation. Phenotyping was performed in mice with low leukemia burden to minimize the effect of tumor cells on T cell number in the BM.\nas §1"}, "T cells in the BM": {"system": "T cells in the BM", "method": "It was next investigated whether it was possible to eliminate highly activated, alloreactive T cells to preserve T cell subsets that could be safely harnessed to improve GVT responses in the BM after alloBMT. […] T cell phenotypes in the BM were first assessed 14 days after transplantation in MM-free mice to generate a dataset that could be broadly interpreted independent of specific tumor induced phenotypes. Single-cell sequencing was performed on sorted T cells from BM with the 10x Genomics Multiome platform to measure concurrent changes in gene expression (RNA sequencing) and chromatin accessibility (ATAC (assay for transposase-accessible chromatin) sequencing).\nas §2\nSingle-cell RNA/ATAC sequencing: Naive C57B⅙ mice were transplanted with C3H.SW grafts and were untreated (alloBMT) or treated with PT-Cy (50 mg/kg) on D+3 and D+4 (PT-Cy). BM was harvested from femurs (four mice pooled per group) at D+14 after alloBMT, and T cells were sort-purified (CD90.2^+CD4^+ and CD90.2^+CD8^+) before nuclei preparation according to the 10x Genomics Multiome protocol. Nuclei (also referred to as cells herein) were captured and libraries were generated according to the manufacturer’s specifications. Libraries were sequenced using Illumina NovaSeq 6000 targeting a depth of 25,000 reads per cell per library.\nSingle-cell RNA/ATAC analysis: Reads were demultiplexed and processed using cellranger-arc v1.0.1 aligning reads to GENCODE vM23/Ensembl98. Peaks were called from each sample’s fragment file (cellranger output) using MACS2 using the parameters “--nomodel --extsize 200 --shift -100.” Quantification of reads in MACS2 peaks were calculated and integrated with cellranger RNA output using Signac. Cells meeting the following criteria (calculated using Signac) were retained for downstream analysis: percent mitochondrial RNA reads <10%; 3 > log10(ATAC counts) < 4.5; 3 > log10(RNA/UMI counts) < 4.5; fraction of reads in peaks >40%; transcription start site (TSS) percentile >75%. RNA/unique molecular identifier (UMI) counts were subject to a variance-stabilized normalization procedure using Seurat’s “glmGamPoi” function before dimensionality reduction using principal components analysis (PCA)."}, "[2]": {"conditions": "50 mg/kg D+3 and D+4, vs untreated recipients"}, "[3]": {"conditions": "50 mg/kg D+3 and D+4, vs untreated haploBMT"}, "[4]": {"conditions": "21 days after transplantation, vs untreated haploBMT"}, "[5]": {"conditions": "21 days, PT-Cy vs untreated haploBMT"}, "[6]": {"conditions": "50 mg/kg D+3 and D+4, D+14, multiome sequencing, vs untreated alloBMT"}}, "note": "Entries after “also recorded” stand apart in the source; their conditions may differ."}
{"smiles": "O=P1(N(CCCl)CCCl)NCCCO1", "note": "(stereo not shown) [PT-Cy, cyclophosphamide]", "values": [{"measurement": "overall survival", "setting": "Vk*MYC myeloma; 50 mg/kg D+3 and D+4, vs untreated alloBMT", "value": "did not significantly reduce overall survival"}, {"measurement": "myeloma burden (M-band) at 4 weeks after alloBMT", "setting": "Vk*MYC myeloma; [2]", "value": "early myeloma cytoreduction with reduced M-bands"}, {"measurement": "myeloma progression (M-band) 8 weeks after alloBMT", "setting": "Vk*MYC myeloma; [2]", "value": "subsequent increase in myeloma progression"}, {"measurement": "CD8+ T cell phenotype in BM, MM-bearing recipients", "setting": "Vk*MYC myeloma; 7 weeks after transplant", "value": "most CD8^+ T cells were DNAM-1-TIGIT^+ with high expression of TOX and TIM-3"}, {"measurement": "total numbers of CD4+ and CD8+ T cells in BM", "setting": "Vk*MYC myeloma; 7 weeks after transplant", "value": "reduction in total numbers of CD4^+ and CD8^+ T cells"}, {"measurement": "total T cell numbers (CD8 and CD4) in BM", "setting": "Vk*MYC myeloma; D+14 (MM-free) and D+21 (MM-bearing) after alloBMT", "value": "concurrently reduced; also recorded: reduces the total number of CD8 and CD4 T cells"}, {"measurement": "incidence of lethal GVHD", "setting": "[1]; [3]", "value": "reduced the incidence of lethal GVHD"}, {"measurement": "relapse-related mortality", "setting": "[1]; [3]", "value": "increased relapse-related mortality"}, {"measurement": "CD8+ T cell numbers in the BM", "setting": "[1]; [4]", "value": "reduced"}, {"measurement": "NK cells in the BM", "setting": "[1]; [4]", "value": "increased"}, {"measurement": "CD4+ IFN-γ production", "setting": "[1]; [5]", "value": "unaffected"}, {"measurement": "frequency of IFN-γ+ CD8+ T cells", "setting": "[1]; [5]", "value": "minimally decreased"}, {"measurement": "overall survival", "setting": "[1]; PT-Cy vs untreated haploBMT", "value": "no difference in overall survival"}, {"measurement": "chromatin accessibility (gene activity scores) of Il18r1, Il2ra, Il7r in CD8+ and CD4+ T cells", "setting": "T cells in the BM; 50 mg/kg D+3 and D+4, D+14, ATAC", "value": "increased gene activity scores"}, {"measurement": "gene signature expression in BM CD8+ T cells", "setting": "T cells in the BM; [6]", "value": "higher expression of stem-like memory gene signatures"}, {"measurement": "gene signature in BM CD4+ T cells", "setting": "T cells in the BM; [6]", "value": "largely enriched for a TSCM signature"}, {"measurement": "CD8+ T cell phenotype in BM, MM-free recipients", "setting": "T cells in the BM; 7 weeks after transplant", "value": "most CD8^+ T cells were DNAM-1^+TIGIT^- and did not express TOX or TIM-3"}, {"measurement": "CD8+ central memory and terminal effector T cells, MM-free recipients", "setting": "T cells in the BM; 7 weeks after transplant", "value": "increase in CD8^+ central memory (TCM; CD44^+CD62L^+) and a decrease in terminal effector (TEFF; CD44^-CD62L^-) T cells"}, {"measurement": "frequency of alloreactive, exhausted T cells in the BM", "setting": "T cells in the BM; D+14", "value": "reduced the frequency of alloreactive, exhausted T cells"}, {"measurement": "granzyme B production by CD8+ T cells", "setting": "T cells in the BM; D+14, RNA and protein expression", "value": "did not abrogate granzyme B production"}, {"measurement": "CD4+ T cell exhaustion signature in FoxP3- conventional CD4+ T cells", "setting": "T cells in the BM; D+14, flow cytometry", "value": "largely indistinguishable from synBMT recipients"}, {"measurement": "DNAM-1, TIGIT, PD-1 and TOX expression on BM CD8+ T cells", "setting": "T cells in the BM; D+14, flow cytometry, vs alloBMT without PT-Cy", "value": "significantly increased DNAM-1 and reduced TIGIT, PD-1, and TOX expression"}]}
